What all share (experiment): kinase binding screen (kinase-tagged T7 phage, qPCR), % Ctrl
In one assay the target is T1, PLK4 (Homo sapiens, UniProt O00444).
T1 sequence (O00444 1-970): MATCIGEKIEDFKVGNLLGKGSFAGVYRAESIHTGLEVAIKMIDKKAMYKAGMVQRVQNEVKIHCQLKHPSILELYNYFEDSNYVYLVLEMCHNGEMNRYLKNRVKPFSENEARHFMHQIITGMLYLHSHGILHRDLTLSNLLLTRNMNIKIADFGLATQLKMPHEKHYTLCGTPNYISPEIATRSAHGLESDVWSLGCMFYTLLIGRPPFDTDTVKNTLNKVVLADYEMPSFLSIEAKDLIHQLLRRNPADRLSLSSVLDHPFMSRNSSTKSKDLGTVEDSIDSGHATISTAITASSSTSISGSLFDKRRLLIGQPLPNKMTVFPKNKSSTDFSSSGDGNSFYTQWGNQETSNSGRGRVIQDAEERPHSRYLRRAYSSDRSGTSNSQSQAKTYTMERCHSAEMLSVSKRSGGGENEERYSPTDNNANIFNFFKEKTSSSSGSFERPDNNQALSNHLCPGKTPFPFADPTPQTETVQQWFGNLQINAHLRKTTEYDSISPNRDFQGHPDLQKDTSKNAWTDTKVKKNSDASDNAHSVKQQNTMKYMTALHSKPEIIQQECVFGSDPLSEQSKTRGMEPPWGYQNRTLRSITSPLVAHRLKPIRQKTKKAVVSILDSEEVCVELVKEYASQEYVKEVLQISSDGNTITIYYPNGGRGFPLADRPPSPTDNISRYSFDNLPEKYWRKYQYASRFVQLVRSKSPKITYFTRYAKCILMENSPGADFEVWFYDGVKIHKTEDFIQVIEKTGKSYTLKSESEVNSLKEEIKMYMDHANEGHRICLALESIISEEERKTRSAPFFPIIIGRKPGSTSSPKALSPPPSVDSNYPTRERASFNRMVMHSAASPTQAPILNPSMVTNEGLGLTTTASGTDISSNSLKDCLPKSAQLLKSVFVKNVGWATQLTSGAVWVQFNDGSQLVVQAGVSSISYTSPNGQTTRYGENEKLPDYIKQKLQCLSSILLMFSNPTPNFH
In a few lines: (§1)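 Kinase-tagged T7 phage lysates were prepared in E. coli (MOI 0.4, 32° C until lysis), then exposed to ligand-bearing beads and test compound at a fixed concentration. Kinase remaining bound was eluted and measured by qPCR.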

The next assay concerns the target CDK7 (Homo sapiens, UniProt P50613). The essentials: as §1
The target of a further assay is SBK1 (Homo sapiens, UniProt Q52WX2). In a few lines: as §1
For a further assay, the target named is T2, SgK085 (Homo sapiens, UniProt Q86YV6).
T2 sequence (Q86YV6 1-388): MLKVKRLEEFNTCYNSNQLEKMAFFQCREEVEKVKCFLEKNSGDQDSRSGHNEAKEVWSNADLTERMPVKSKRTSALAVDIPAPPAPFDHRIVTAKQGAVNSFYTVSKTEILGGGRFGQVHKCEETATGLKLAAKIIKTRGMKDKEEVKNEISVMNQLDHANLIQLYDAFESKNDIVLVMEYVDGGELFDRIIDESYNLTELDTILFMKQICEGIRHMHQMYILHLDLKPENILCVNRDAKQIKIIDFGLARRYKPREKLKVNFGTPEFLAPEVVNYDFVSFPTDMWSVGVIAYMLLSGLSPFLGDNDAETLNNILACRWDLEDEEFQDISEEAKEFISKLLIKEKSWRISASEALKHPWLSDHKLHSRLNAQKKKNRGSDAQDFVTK
The essentials: as §1

A further assay addresses PIK4CB (Homo sapiens, UniProt Q9UBF8). The essentials: as §1
The target of the next assay is T3, IRAK3 (Homo sapiens, UniProt Q9Y616).
T3 sequence (Q9Y616 1-596): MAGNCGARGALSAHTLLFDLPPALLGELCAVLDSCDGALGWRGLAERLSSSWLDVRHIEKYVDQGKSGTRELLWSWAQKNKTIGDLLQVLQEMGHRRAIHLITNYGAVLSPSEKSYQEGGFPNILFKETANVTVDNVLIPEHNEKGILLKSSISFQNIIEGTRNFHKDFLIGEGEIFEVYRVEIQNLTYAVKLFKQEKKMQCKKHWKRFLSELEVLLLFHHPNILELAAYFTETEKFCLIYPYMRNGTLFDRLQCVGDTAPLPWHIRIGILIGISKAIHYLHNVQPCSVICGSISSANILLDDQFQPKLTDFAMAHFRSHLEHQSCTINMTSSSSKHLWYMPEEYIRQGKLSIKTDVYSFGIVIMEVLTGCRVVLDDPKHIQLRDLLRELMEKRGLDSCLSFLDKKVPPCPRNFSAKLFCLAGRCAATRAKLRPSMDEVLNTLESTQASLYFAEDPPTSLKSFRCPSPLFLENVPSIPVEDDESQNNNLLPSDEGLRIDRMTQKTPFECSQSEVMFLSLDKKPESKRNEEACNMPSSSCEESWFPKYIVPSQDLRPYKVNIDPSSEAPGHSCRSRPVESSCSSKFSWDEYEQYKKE
The essentials:
as §1

Broadly, the remaining activity is the signal under treatment as a percentage of the control signal. A low value points to little activity left.

SBK1, sequence (Q52WX2 whole entry): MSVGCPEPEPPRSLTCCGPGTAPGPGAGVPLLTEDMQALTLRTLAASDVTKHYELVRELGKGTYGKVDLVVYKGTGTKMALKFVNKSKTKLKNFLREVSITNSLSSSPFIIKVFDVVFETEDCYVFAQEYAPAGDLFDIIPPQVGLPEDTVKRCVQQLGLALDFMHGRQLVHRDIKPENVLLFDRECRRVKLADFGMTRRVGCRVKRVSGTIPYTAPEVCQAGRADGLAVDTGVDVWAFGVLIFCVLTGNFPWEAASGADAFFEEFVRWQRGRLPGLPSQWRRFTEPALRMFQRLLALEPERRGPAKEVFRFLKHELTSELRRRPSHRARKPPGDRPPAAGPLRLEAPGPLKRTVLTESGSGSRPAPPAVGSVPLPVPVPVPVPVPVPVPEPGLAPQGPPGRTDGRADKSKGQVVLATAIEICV
CDK7, sequence (P50613 whole entry): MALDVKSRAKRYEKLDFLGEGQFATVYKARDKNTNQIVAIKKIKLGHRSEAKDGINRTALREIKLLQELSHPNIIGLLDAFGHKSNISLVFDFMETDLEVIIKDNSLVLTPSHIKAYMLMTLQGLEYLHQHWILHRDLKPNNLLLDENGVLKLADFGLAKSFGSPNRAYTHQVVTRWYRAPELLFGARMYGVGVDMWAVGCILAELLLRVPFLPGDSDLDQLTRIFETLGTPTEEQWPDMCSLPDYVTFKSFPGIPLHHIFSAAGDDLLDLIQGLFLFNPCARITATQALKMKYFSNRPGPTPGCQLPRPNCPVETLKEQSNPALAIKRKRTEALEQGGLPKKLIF
PIK4CB, sequence (Q9UBF8 whole entry, species assumed): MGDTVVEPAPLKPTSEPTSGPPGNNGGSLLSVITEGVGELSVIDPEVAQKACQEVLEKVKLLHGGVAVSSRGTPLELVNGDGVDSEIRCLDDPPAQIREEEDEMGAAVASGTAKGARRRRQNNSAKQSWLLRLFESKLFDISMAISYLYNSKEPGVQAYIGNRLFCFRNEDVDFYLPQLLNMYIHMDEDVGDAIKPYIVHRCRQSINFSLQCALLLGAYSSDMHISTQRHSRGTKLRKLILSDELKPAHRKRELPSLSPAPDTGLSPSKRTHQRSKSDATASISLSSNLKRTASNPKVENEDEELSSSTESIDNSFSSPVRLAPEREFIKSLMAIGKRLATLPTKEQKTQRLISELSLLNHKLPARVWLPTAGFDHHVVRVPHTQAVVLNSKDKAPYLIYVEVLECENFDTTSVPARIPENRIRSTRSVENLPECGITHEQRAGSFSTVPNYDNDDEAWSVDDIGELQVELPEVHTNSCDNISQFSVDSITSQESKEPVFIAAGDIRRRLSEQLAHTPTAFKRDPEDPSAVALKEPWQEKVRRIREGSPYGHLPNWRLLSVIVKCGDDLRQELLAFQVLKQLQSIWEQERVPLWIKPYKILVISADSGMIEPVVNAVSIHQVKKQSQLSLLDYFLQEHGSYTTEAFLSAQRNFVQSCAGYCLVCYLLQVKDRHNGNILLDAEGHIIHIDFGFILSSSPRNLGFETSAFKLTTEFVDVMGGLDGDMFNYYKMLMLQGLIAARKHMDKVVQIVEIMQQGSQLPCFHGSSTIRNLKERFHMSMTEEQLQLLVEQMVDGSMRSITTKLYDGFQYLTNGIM

On to `Nc1nc2c(-c3cc(Br)c(Br)[nH]3)nccc2[nH]1` [Ageladine A, ageladine A, reference compound], for which the remaining activity at 1 µM on PLK4 was 81%; at CDK7, 79%; at SBK1 it was 87%; on SgK085 it was 89%; at PIK4CB it was 66%; on IRAK3, 85%. In addition, the remaining activity at 10 µM at PLK4 (10 μM) was 65%; at CDK7 (10 μM), 66%; on SBK1 (10 μM), 77%; at SgK085 (10 μM), 90%; at PIK4CB (10 μM), 50%; at IRAK3 (10 μM) it was 51%.

For `Nc1nc2c(-c3ccccn3)nccc2[nH]1` [drawing 35, 4-(pyrid-2-yl)-1H-imidazo[4,5-c]pyridin-2-amine], the remaining activity at 1 µM on PLK4 turned out to be 55%; on CDK7, 30%; at SBK1 it was 53%; on SgK085, 43%; on PIK4CB, 88%; at IRAK3 it was 88%.

Consider `Nc1nc2c(-c3cnc4ccccc4c3)nccc2[nH]1` [drawing 36, 4-(quinolin-3-yl)-1H-imidazo[4,5-c]pyridin-2-amine], for which the remaining activity at 1 µM on PLK4 turned out to be 100%; on CDK7, 100%; at SBK1 it was 100%; on SgK085, 92%; on PIK4CB it was 37%; at IRAK3, 56%.

Values taken from patent US20110152313A1 (MACQUARIE UNIVERSITY, priority 2008, published 2011).
